This note sets out measurements from US4053615A, “Phthalimidopiperidines and anti-convulsant compositions thereof” (John Wyeth & Brother Limited, priority 1972, dated 1977).

For test [1], the system named is clonic and tonic convulsions induced by pentylenetetrazole. As to the kind of experiment: Procedure A: anti-pentylenetetrazole activity. It counts as in vivo. The arrangement: key to Activity class, Procedure A: INACTIVE: A compound is regarded as inactive in either one of the two procedures if the ED50 of the compound in the test procedure is greater than 400 mg/kg. Conditions: mice, p.o.; for ED50: Mus musculus, po, 1 h, challenge one hour later with pentylenetetrazole 125 mg/kg i.p., read-out: ED50 (against convulsions), Procedure A. The method, then:
ANTI-PENTYLENETETRAZOLE ACTIVITY
Compounds at a number of dose levels are administered p.o. to groups of six mice (3 males and 3 females). One hour later the animals are challenged with pentylenetetrazole (125mg/kg i.p.). The incidence of clonic and tonic convulsions and deaths is observed for one-half hour. Protection against convulsions and death is determined by comparison with controls run simultaneously. An ED50 against convulsions is calculated from probit-log dose curves.

The subject of test [2] is tonic extensor seizures (maximal electroshock). As to the kind of experiment: Procedure B: maximal electroshock seizures (MES). In kind it is in vivo. Conditions: mice, orally; for ED50: Mus musculus, po, 1 h, supramaximal electroshock one hour later (25 mA, 0.2 sec), read-out: ED50 (against convulsions), Procedure B. Set-up: key to Activity class, Procedure B: INACTIVE: A compound is regarded as inactive in either one of the two procedures if the ED50 of the compound in the test procedure is greater than 400 mg/kg. The method, then: MAXIMAL ELECTROSHOCK SEIZURES (MES)
Compounds at graded dose levels are administered orally to groups of six mice. One hour later, the animals are given a supramaximal electroshock through pinna electrodes (25 mA, 0.2 sec). Presence or absence of tonic extensor seizures as well as the number of deaths are recorded.
The percent protection against seizures is calculated. An ED50 against convulsions is calculated from probit-log dose curves.
On the technique in general: The maximal electroshock test induces tonic seizures with an electrical stimulus.

A short description of test [3]: Anti-inflammatory activity. It counts as in vivo. The note with it: when tested on warm blooded animals.
In test [4] the test system is blood platelet aggregation. As to the kind of experiment: Inhibition of blood platelet aggregation.
A short description of another test: Anti-arrhythmic activity. The note with it: when tested on warm blooded animals. It counts as in vivo.

Broadly, the ED50 is the dose at which the effect has come halfway, by size or by number of responders.

For the compound `CCN1CCC(N2C(=O)c3ccccc3C2=O)C1` (stereo not shown) [1-ethyl-3-phthalimido-pyrrolidine, 1-ethyl-3-phthalimidopyrrolidine, reference compound], the ED50 in test [1] and in test [2] was more than 400 mg/kg in each case. Also, the “Activity class, Procedure A” value in test [1] (pentylenetetrazole challenge) is “INACTIVE”. The “Activity class, Procedure B” value in test [2] (maximal electroshock) is reported as “INACTIVE”.

On to `O=C1c2ccccc2C(=O)N1C1CCN(Cc2ccccc2)CC1` [Example 1, 1-Benzyl-4-phthalimido-piperidine], for which the anti-inflammatory activity result in test [3] is recorded as “Anti-inflammatory activity is shown”.

As for `O=C1c2ccccc2C(=O)N1C1CCNCC1` [Example 2, 4-Phthalimido-piperidine], the “inhibition of blood platelet aggregation” value in test [4] is “active as an inhibitor of blood platelet aggregation”.

For the compound `CCN1CCCC(N2C(=O)c3ccccc3C2=O)C1` (stereo not shown) [Example 3, 1-Ethyl-3-phthalimido-piperidine], the values for the 50% effective dose (ED50) in test [1] and in test [2] were 51 to 100 mg/kg and 31 to 50 mg/kg, respectively. For the same compound, in “Anti-arrhythmic activity”, the anti-arrhythmic activity entry is given as “anti-arrhythmic activity is shown”.

As for `CCN1CCCC(N2C(=O)c3ccc([N+](=O)[O-])cc3C2=O)C1` (stereo not shown) [Example 4, 1-Ethyl-3-(4-nitrophthalimido)piperidine], the ED50 in test [1] fell in the range of 6 to 15 mg/kg. Also, the anti-arrhythmic activity result in “Anti-arrhythmic activity” is “anti-arrhythmic activity is shown”.

`CCN1CCCC(N2C(=O)c3ccc(N)cc3C2=O)C1` (stereo not shown) [Example 6, 3-(4-Aminophthalimido)-1-ethylpiperidine]: the ED50 in test [1] lay within 6 to 15 mg/kg.

`CCCCN1CCC(N2C(=O)c3ccc([N+](=O)[O-])cc3C2=O)CC1` [Example 12, 1-n-Butyl-4-(4-nitrophthalimido)piperidine]: the ED50 in test [1] is 6 to 15 mg/kg.

Take `CCCCN1CCC(N2C(=O)c3ccc(N)cc3C2=O)CC1` [Example 13, 4-(4-Aminophthalimido)-1-n-butylpiperidine]: the ED50 in test [1] was 6 to 15 mg/kg.

In the case of `O=C1c2ccc([N+](=O)[O-])cc2C(=O)N1C1CCN(Cc2ccccc2)CC1` [Example 15, 1-Benzyl-4-(4-nitrophthalimido)piperidine], in test [1], the ED50 was 6 to 15 mg/kg.

Take `Nc1ccc2c(c1)C(=O)N(C1CCN(Cc3ccccc3)CC1)C2=O` [Example 16, 4-(4-Aminophthalimido)-1-benzylpiperidine]: the ED50 in test [1] was 6 to 15 mg/kg.
